# Measured values: patent US20250084178A1, “ANTI-CD39 ANTIBODIES AND USE THEREOF” (ARCUS BIOSCIENCES, INC., priority 2022, published 2025)
# What was measured:
# CT26 and MC38 cells = assay: Extracellular ATP release after oxaliplatin, murine colon carcinoma lines; format: cell-based; settings: 250 μM oxaliplatin, 8 hours
# Experimental: (§1) To evaluate cellular ATP release following oxaliplatin treatment, murine colon carcinoma cell lines CT26 and MC38 and human melanoma cell line SK-MEL-5 were defrosted, rinsed, and resuspended in their respective culture media. Culture media for CT26 and MC38 is RPMI+10% FBS+1% glutamax+1% penicillin-streptomycin+1% sodium pyruvate. Culture media for SK-MEL-5 is EMEM+10% FBS+1% glutamax+1% penicillin-streptomycin+1% sodium pyruvate. Cells were plated at 2.5×10^4 cells per well in a 96-well plate and incubated overnight at 37° C., 5% CO2. The following day, the cells were treated with the vehicle (PBS), 100 μM or 250 μM oxaliplatin. […] To determine cellular viability, the cells were incubated with treatments for 24 hours at 37° C., 5% CO2. At the end of the incubation period, viability was determined using luminescence-based Cell Titer Glo 2.0 assay (Promega, Cat. No. G9242). Data are presented as viability normalized to untreated vehicle controls (FIG. 19A). To determine HMGB1 release, the cells were incubated with treatment for 24 hours at 37° C., 5% CO2. At the end of the incubation period, the plates were centrifuged at 400×g for 5 minutes and supernatants were collected. HMGB1 levels in the culture supernatants were then determined using Lumit HMGB1 Kit (Promega, Cat. No. CS3030B01) following manufacturer's instructions (FIG. 19B). […]
# SK-MEL-5 cells = assay: Extracellular ATP release after oxaliplatin, SK-MEL-5 cells; format: cell-based, human; settings: 250 μM oxaliplatin, 8 hours
# Experimental: as §1
structure (smiles),measurement,setting,value
"O=C1[O][Pt]2([NH][C@@H]3CCCC[C@H]3[NH]2)[O]C1=O [oxaliplatin, reference compound]",Extracellular ATP release,CT26 and MC38 cells,demonstrated ATP release
same,Extracellular ATP release,SK-MEL-5 cells,demonstrated ATP release
